# Experimental data taken from US4808409A, “Low cariogenic sweetening agents” (Board of Trustees, University of Illinois, priority 1984, dated 1989).
# How the values were obtained:
# [1] = Body weight variation in mice following oral administration; conditions: mouse, in vivo, po
# Protocol: (§1) Compounds were suspended in a minimum volume of 1% sodium carboxymethylcellulose, and were administered by oral intubation at the doses indicated in Table II.
# Water solubility = format: physicochemical
# [2] = Stability in citrate-phosphate-borate buffer solutions by TLC; format: physicochemical
# Protocol: The first of these manipulations was conducted by storage of this compound in citrate-phosphate-borate buffer solutions, at the pH levels 2, 3, 4, 6, 7, 8, 10, and 12. […] Solutions were exposed to the atmosphere after their constitution.
# Compound decomposition was assessed by counting the number of zones apparent by TLC analysis 1 hour, 3 hours, 6 hours, 24 hours, 1 week and 2 weeks after solution composition.
# [3] = system: Salmonella typhimurium strain TM677; assay: Forward mutation assay; format: cell-based
# human taste panel = assay: Human taste panel magnitude estimation of sweetness intensity and pleasantness
# Text: Solutions were presented to the subjects in a randomized fashion and were sampled in duplicate. After tasting, each solution was expectorated, and the mouth was washed with distilled water.
# [4] = Thermostability of neat hernandulcin at 100° C. by TLC; format: physicochemical
# male Swiss-Webster mice = assay: in vivo; conditions: oral, in words
# Protocol: as §1
# ^a Male SwissWebster mice (9 or 10 animals per dose).
# ^d Mortality = number of mice dying within 14 days/number of starting
# ^e Mortality = number of mice dying within 24 hours/number of startin
# S. mutans [5] = assay: Cariogenicity: acid production by S. mutans from sweetener; format: cell-based
# Protocol: In a first test, the ability of microbes to utilize this sweetener source as a nutrient and convert it to acidic by-products was determined.
# S. mutans [6] = assay: Cariogenicity: inhibition of acid production from sucrose by S. mutans; format: cell-based; conditions: 428 micrograms per unit volume sucrose, 5,000 micrograms per unit volume sweetener
# Protocol: In a second test, the ability of the test compound to inhibit acid production from sucrose by S. mutans was determined.
# [7] = synthetic hernandulcin, 60° C., 1 week and 2 weeks
# [8] = natural hernandulcin 2.5 × 10^-4 M
# [9] = synthetic hernandulcin, 100° C., 24 hours, TLC zone areas
structure (smiles),measurement,setting,value
"CC(C)=CCC[C@@](C)(O)[C@H]1CCC(C)=CC1=O (relative stereo) [Hernandulcin, 6-(1',5'-dimethyl-1'-hydroxyhex-4'-en-1'-yl)-3-methyl-2-cyclohexen-1-one]","Body weight, Day 1 (1.0 g/kg)",[1],27.1 ± 0.8 g
same,"Body weight, Day 1 (2.0 g/kg)",[1],25.6 ± 0.9 g
same,"Body weight, Day 3 (1.0 g/kg)",[1],26.7 ± 0.8 g
same,"Body weight, Day 3 (2.0 g/kg)",[1],26.3 ± 0.9 g
same,"Body weight, Day 7 (1.0 g/kg)",[1],27.9 ± 0.8 g
same,"Body weight, Day 7 (2.0 g/kg)",[1],26.0 ± 0.9 g
same,"Body weight, Day 14 (1.0 g/kg)",[1],28.1 ± 0.8 g
same,"Body weight, Day 14 (2.0 g/kg)",[1],27.6 ± 0.9 g
same,"Body weight, pre-drug (1.0 g/kg group)",[1],29.3 ± 0.8 g
same,"Body weight, pre-drug (2.0 g/kg group)",[1],26.0 ± 0.9 g
same,solubility,Water solubility,~500 µg/mL
same,Detectability of hernandulcin after storage,[2]; [7],detectable at all pH's
same,pH dependence of decomposition,[2]; [7],greater degrees of decomposition being observed at the acid and alkaline pH extremes
same,"Breakdown in buffer at 60° C., 1 week and 2 weeks","[2]; synthetic hernandulcin, about 0.1 wt. %, pH 2-12, 60° C.",substantial breakdown was apparent in all solutions
same,"Decomposition in buffer at 60° C., up to 24 hours","[2]; synthetic hernandulcin, about 0.1 wt. %, pH 2-12, 60° C., up to 24 hours",no decomposition was observed
same,Breakdown in buffer at room temperature,"[2]; synthetic hernandulcin, about 0.1 wt. %, pH 2-12, room temperature, up to two weeks",no compound breakdown was evident
same,Stability to hydrolysis,"[2]; wide pH range, up to about 60° C.",relatively stable to hydrolysis over a wide pH range
same,Mutagenicity,[3]; summary in words,non-mutagenic
same,EC (sweetness equal to 0.27 M sucrose),"human taste panel; Homo sapiens, natural hernandulcin, distilled water, 17 participants, read-out: Concentration matching the sweetness of 0.27 M sucrose",250 µM
same,Bitterness judged by the panel,"human taste panel; in words, natural hernandulcin",moderate bitterness
same,Off- and after-tastes judged by the panel,"human taste panel; in words, natural hernandulcin",significant off- and after-tastes
same,Pleasantness judged by the panel,"human taste panel; in words, natural hernandulcin",less pleasant than sucrose
same,After-taste intensity,human taste panel; [8],30
same,After-taste pleasantness,human taste panel; [8],0
same,Bitterness,human taste panel; [8],15
same,Off-taste intensity,human taste panel; [8],33
same,Off-taste pleasantness,human taste panel; [8],-5
same,Concentration matching the sweetness of 0.27 M sucrose,"human taste panel; natural hernandulcin, distilled water, 17 participants",~250 µM
same,"Sweetness intensity, hernandulcin 1.06 × 10^-5 M","human taste panel; natural, 1.06 × 10^-5 M, scale 0-100, mean (standard error)",9.7 (4.19)
same,"Sweetness pleasantness, hernandulcin 1.06 × 10^-5 M","human taste panel; natural, 1.06 × 10^-5 M, scale -100 to +100, mean (standard error)",1.2 (5.58)
same,"Sweetness intensity, hernandulcin 2.11 × 10^-5 M","human taste panel; natural, 2.11 × 10^-5 M, scale 0-100, mean (standard error)",8.8 (2.37)
same,"Sweetness pleasantness, hernandulcin 2.11 × 10^-5 M","human taste panel; natural, 2.11 × 10^-5 M, scale -100 to +100, mean (standard error)",2.6 (6.00)
same,"Sweetness intensity, hernandulcin 4.24 × 10^-5 M","human taste panel; natural, 4.24 × 10^-5 M, scale 0-100, mean (standard error)",8.8 (3.18)
same,"Sweetness pleasantness, hernandulcin 4.24 × 10^-5 M","human taste panel; natural, 4.24 × 10^-5 M, scale -100 to +100, mean (standard error)",1.2 (4.18)
same,"Sweetness intensity, hernandulcin 8.47 × 10^-5 M","human taste panel; natural, 8.47 × 10^-5 M, scale 0-100, mean (standard error)",15.8 (4.10)
same,"Sweetness pleasantness, hernandulcin 8.47 × 10^-5 M","human taste panel; natural, 8.47 × 10^-5 M, scale -100 to +100, mean (standard error)",4.9 (7.67)
same,"Sweetness intensity, hernandulcin 16.9 × 10^-5 M","human taste panel; natural, 16.9 × 10^-5 M, scale 0-100, mean (standard error)",39.7 (3.52)
same,"Sweetness pleasantness, hernandulcin 16.9 × 10^-5 M","human taste panel; natural, 16.9 × 10^-5 M, scale -100 to +100, mean (standard error)",24.8 (7.99)
same,"Sweetness intensity, hernandulcin 33.9 × 10^-5 M","human taste panel; natural, 33.9 × 10^-5 M, scale 0-100, mean (standard error)",44.4 (5.45)
same,"Sweetness pleasantness, hernandulcin 33.9 × 10^-5 M","human taste panel; natural, 33.9 × 10^-5 M, scale -100 to +100, mean (standard error)",8.2 (10.70)
same,"Sweetness intensity, hernandulcin 67.8 × 10^-5 M","human taste panel; natural, 67.8 × 10^-5 M, scale 0-100, mean (standard error)",62.7 (5.59)
same,"Sweetness pleasantness, hernandulcin 67.8 × 10^-5 M","human taste panel; natural, 67.8 × 10^-5 M, scale -100 to +100, mean (standard error)",-16.2 (9.78)
same,Sweetness intensity at matched concentration,"human taste panel; scale 0-100, sucrose 0.27 M, natural hernandulcin 2.5 × 10^-4 M",40
same,Sweetness pleasantness at matched concentration,"human taste panel; scale -100 to +100, natural hernandulcin 2.5 × 10^-4 M",15
same,remaining at 24 h,"[4]; neat compound, read-out: Compound remaining unchanged",~60%
same,Conversion to 3-methyl-2-cyclohexen-1-one,[4]; [9],~10%
same,Conversion to 6-methyl-5-hepten-2-one,[4]; [9],~10%
same,Acute toxicity for mice,male Swiss-Webster mice,non-toxic
same,Mortality at doses up to 2 g/kg,male Swiss-Webster mice; up to 2 g/kg body weight,no mortality
"CC(C)=CCC[C@@](C)(O)[C@H]1CCC(C)=CC1=O (relative stereo) [synthetic hernandulcin, 6-(1',5'-dimethyl-1'-hydroxyhex-4'-en-1'-yl)-3-methyl-2-cyclohexen-1-one]","Rate of acid production at 5,000 micrograms per unit volume","S. mutans [5]; 5,000 micrograms per unit volume sweetener",2.6×10^-5 mEq acid/min.
same,Rate of acid production compared to sucrose,"S. mutans [5]; in words, 5,000 micrograms per unit volume",relatively low rate of acid production
same,Mutagenic activity without metabolic activation,"[3]; synthetic hernandulcin, in absence of activating system",No significant mutagenic activity
same,Mutagenic activity with metabolic activation,"[3]; synthetic hernandulcin, in presence of activating system from livers of Aroclor 1254-pretreated rats",No significant mutagenic activity
same,Taste,"human taste panel; in words, synthetic racemic hernandulcin",sweet
same,Acute toxicity for mice,male Swiss-Webster mice,non-toxic
same,Inhibition of acid production from sucrose,S. mutans [6],failed to reduce the rate of acid production
